# Tests used:
# [1] = biological target: T1, Recombinant purified human JAK3 (Homo sapiens, UniProt P52333); assay: JAK3 kinase inhibitory activity, ADP-Glo kinase assay (Promega V9441); assay type: biochemical; settings: ATP 5 uM, 4 ng JAK3 per reaction, 1 hour 30 °C, chemiluminescence
# T1 construct: purchased Promega V9441
# T1 sequence (P52333 1-1124): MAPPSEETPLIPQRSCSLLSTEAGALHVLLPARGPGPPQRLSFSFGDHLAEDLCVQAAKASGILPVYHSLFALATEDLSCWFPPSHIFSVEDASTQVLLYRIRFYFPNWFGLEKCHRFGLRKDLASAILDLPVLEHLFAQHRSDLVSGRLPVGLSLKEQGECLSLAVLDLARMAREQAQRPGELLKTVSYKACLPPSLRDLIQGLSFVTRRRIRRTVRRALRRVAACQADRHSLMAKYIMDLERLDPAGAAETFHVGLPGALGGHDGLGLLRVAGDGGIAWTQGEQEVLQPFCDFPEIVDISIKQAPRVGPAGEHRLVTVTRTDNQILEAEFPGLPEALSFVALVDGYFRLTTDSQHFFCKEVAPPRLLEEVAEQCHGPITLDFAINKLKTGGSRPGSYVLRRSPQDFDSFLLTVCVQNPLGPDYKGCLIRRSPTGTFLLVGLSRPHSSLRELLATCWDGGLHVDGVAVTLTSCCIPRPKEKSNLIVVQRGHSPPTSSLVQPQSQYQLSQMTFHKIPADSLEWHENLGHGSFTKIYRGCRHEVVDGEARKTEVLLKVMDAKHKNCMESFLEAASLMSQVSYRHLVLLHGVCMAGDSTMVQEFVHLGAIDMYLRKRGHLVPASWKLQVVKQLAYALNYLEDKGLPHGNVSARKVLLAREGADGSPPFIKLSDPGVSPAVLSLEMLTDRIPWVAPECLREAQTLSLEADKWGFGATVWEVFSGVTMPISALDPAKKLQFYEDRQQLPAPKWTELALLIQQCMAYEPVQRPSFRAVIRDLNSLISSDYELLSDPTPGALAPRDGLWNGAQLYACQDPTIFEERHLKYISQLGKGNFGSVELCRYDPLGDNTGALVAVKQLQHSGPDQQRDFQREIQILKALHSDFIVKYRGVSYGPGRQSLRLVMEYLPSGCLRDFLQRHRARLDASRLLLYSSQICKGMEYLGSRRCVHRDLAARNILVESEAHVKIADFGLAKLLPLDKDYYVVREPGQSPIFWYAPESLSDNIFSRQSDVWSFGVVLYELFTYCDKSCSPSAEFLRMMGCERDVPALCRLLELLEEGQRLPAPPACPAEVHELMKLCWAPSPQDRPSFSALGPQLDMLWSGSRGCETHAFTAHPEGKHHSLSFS
# Procedure, shortened: (§1)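 IC50 values come from ADP-Glo luminescence after 1 h kinase reactions at 30 °C in 1% DMSO on 0.2 µg/µL Poly(Glu4,Tyr1) substrate. ATP was 10 µM for BTK (8 ng, buffer containing MnCl2) and 5 µM for JAK3 (4 ng), in Tris-Cl pH 7.5/MgCl2/BSA/DTT.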
# [2] = biological target: T2, Recombinant purified human BTK (Homo sapiens, UniProt Q06187); assay: BTK kinase inhibitory activity, ADP-Glo kinase assay (Promega V9071); assay type: biochemical; settings: ATP 10 uM, 8 ng BTK per reaction, 1 hour 30 °C, chemiluminescence
# T2 construct: purchased Promega V9071
# Procedure, shortened: as §1
# T2 sequence (Q06187 whole entry): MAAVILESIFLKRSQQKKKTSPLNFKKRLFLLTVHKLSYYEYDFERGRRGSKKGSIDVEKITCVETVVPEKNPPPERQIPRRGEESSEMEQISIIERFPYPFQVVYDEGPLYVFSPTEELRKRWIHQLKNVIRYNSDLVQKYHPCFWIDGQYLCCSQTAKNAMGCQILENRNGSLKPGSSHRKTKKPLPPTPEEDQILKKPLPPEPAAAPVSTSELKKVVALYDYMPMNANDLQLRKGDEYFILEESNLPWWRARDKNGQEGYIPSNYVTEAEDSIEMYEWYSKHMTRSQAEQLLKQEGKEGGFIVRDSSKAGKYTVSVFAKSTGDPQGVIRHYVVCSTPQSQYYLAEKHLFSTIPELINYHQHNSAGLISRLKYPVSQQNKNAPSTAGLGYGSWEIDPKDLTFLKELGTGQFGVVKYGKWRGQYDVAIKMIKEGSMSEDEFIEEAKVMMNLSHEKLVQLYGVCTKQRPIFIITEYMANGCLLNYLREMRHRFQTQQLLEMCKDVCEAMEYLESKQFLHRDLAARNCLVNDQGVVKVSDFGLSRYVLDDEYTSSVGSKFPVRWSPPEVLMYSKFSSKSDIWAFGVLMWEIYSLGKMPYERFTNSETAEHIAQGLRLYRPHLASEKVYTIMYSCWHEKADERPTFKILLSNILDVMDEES
SMILES,IC50 [1] [nM],IC50 [2] [nM]
"CC(C)/C=C(\C#N)C(=O)N1CCC[C@@H](Nc2nc(Nc3cnn(C4CC4)c3)nc3[nH]nc(Cl)c23)C1 [Example 162, (R,E)-2-(3-((3-chloro-6-((1-cyclopropyl-1H-pyrazol-4-yl)amino)-1H-pyrazolo[3,4-d]pyrimidin-4-yl)amino)piperidine-1-carbonyl)-4-methylpent-2-enenitrile]",3,4.8
"CC(C)(C)/C=C(\C#N)C(=O)N1CCC[C@@H](Nc2nc(Nc3cnn(C4CC4)c3)nc3[nH]nc(Cl)c23)C1 [Example 163, (R,E)-2-(3-((3-chloro-6-((1-cyclopropyl-1H-pyrazol-4-yl)amino)-1H-pyrazolo[3,4-d]pyrimidin-4-yl)amino)piperidine-1-carbonyl)-4,4-dimethylpent-2-enenitrile]",2.7,1.2
"N#C/C(=C\C1CCCC1)C(=O)N1CCC[C@@H](Nc2nc(Nc3cnn(C4CC4)c3)nc3[nH]nc(Cl)c23)C1 [Example 165, (R,E)-2-(3-((3-chloro-6-((1-cyclopropyl-1H-pyrazol-4-yl)amino)-1H-pyrazolo[3,4-d]pyrimidin-4-yl)amino)piperidine-1-carbonyl)-3-cyclopentylacrylonitrile]",2.2,1.9
"CCn1cc(Nc2nc(N[C@H]3CN(C(=O)/C(C#N)=C/C(C)C)CC[C@H]3C)c3c(Cl)n[nH]c3n2)cn1 [Example 170, (E)-2-((3R,4R)-3-((3-chloro-6-((1-ethyl-1H-pyrazol-4-yl)amino)-1H-pyrazolo[3,4-d]pyrimidin-4-yl)amino)-4-methylpiperidine-1-carbonyl)-4-methylpent-2-enenitrile]",11.4,2.9
"CCn1cc(Nc2nc(N[C@@H]3CCCN(C(=O)/C(C#N)=C/C4CC4)C3)c3cc[nH]c3n2)cn1 [Example 171, (R,E)-3-cyclopropyl-2-(3-((2-((1-ethyl-1H-pyrazol-4-yl)amino)-7H-pyrrolo[2,3-d]pyrimidin-4-yl)amino)piperidine-1-carbonyl)acrylonitrile]",0.9,2.2
"CCn1cc(Nc2nc(N[C@@H]3CCCN(C(=O)/C(C#N)=C/C(C)C)C3)c3cc[nH]c3n2)cn1 [Example 172, (R,E)-2-(3-((2-((1-ethyl-1H-pyrazol-4-yl)amino)-7H-pyrrolo[2,3-d]pyrimidin-4-yl)amino)piperidine-1-carbonyl)-4-methylpent-2-enenitrile]",0.9,1.6
"CCn1cc(Nc2nc(S[C@@H]3CCCN(C(=O)/C(C#N)=C/C4CC4)C3)c3cc[nH]c3n2)cn1 [Example 173, (R,E)-3-cyclopropyl-2-(3-((2-((1-ethyl-1H-pyrazol-4-yl)amino)-7H-pyrrolo[2,3-d]pyrimidin-4-yl)thio)piperidine-1-carbonyl)acrylonitrile]",1,6
"CCn1cc(Nc2nc(S[C@@H]3CCCN(C(=O)/C(C#N)=C/C(C)C)C3)c3cc[nH]c3n2)cn1 [Example 174, (R,E)-2-(3-((2-((1-ethyl-1H-pyrazol-4-yl)amino)-7H-pyrrolo[2,3-d]pyrimidin-4-yl)thio)piperidine-1-carbonyl)-4-methylpent-2-enenitrile]",0.7,2
"CCn1cc(Nc2nc(N[C@@H]3CCCN(C(=O)/C(C#N)=C/C(C)C)C3)c3c(Cl)c[nH]c3n2)cn1 [Example 178, (R,E)-2-(3-((5-chloro-2-((1-ethyl-1H-pyrazol-4-yl)amino)-7H-pyrrolo[2,3-d]pyrimidin-4-yl)amino)piperidine-1-carbonyl)-4-methylpent-2-enenitrile]",0.5,0.9
"CCn1cc(Nc2nc(S[C@@H]3CCCN(C(=O)/C(C#N)=C/C(C)C)C3)c3c(Cl)c[nH]c3n2)cn1 [Example 180, (R,E)-2-(3-((5-chloro-2-((1-ethyl-1H-pyrazol-4-yl)amino)-7H-pyrrolo[2,3-d]pyrimidin-4-yl)thio)piperidine-1-carbonyl)-4-methylpent-2-enenitrile]",1.5,3.1
"CCn1cc(Nc2nc(N[C@H]3CN(C(=O)CCl)CC[C@H]3C)c3c(Cl)n[nH]c3n2)cn1 [Example 183, 2-chloro-1-((3R,4R)-3-((3-chloro-6-((1-ethyl-1H-pyrazol-4-yl)amino)-1H-pyrazolo [3,4-d]pyrimidin-4-yl)amino)-4-methylpiperidin-1-yl)ethan-1-one]",0.8,1.6

# Now from value to compound:
IC50 [1] [nM],IC50 [2] [nM],SMILES
5,1.3,"CCn1cc(Nc2nc(N[C@H]3CN(C(=O)/C(C#N)=C/C4CC4)CC[C@H]3F)c3c(Cl)n[nH]c3n2)cn1 [Example 161, (E)-2-((3S,4R)-3-((3-chloro-6-((1-ethyl-1H-pyrazol-4-yl)amino)-1H-pyrazolo[3,4-d]pyrimidin-4-yl)amino)-4-fluoropiperidine-1-carbonyl)-3-cyclopropylacrylonitrile]"
8.8,2.2,"N#C/C(=C\C1CC1)C(=O)N1CCC[C@@H](Nc2nc(Nc3cnn(C4CC4)c3)nc3[nH]nc(Cl)c23)C1 [Example 164, (R,E)-2-(3-((3-chloro-6-((1-cyclopropyl-1H-pyrazol-4-yl)amino)-1H-pyrazolo[3,4-d]pyrimidin-4-yl)amino)piperidine-1-carbonyl)-3-cyclopropylacrylonitrile]"
5.6,1.2,CCn1cc(Nc2nc(N[C@@H]3CCCN(C(=O)/C(C#N)=C/C4CC4)C3)c3c(Cl)n[nH]c3n2)cn1 [Example 166]
43.1,1.5,"CCn1cc(Nc2nc(N(C)[C@@H]3CCCN(C(=O)/C(C#N)=C/C4CC4)C3)c3c(Cl)n[nH]c3n2)cn1 [Example 167, (R,E)-2-(3-((3-chloro-6-((1-ethyl-1H-pyrazol-4-yl)amino)-1H-pyrazolo[3,4-d]pyrimidin-4-yl)(methyl)amino)piperidine-1-carbonyl)-3-cyclopropylacrylonitrile]"
18,4.3,CCn1cc(Nc2nc(N(C)[C@@H]3CCCN(C(=O)/C(C#N)=C/C(C)C)C3)c3c(Cl)n[nH]c3n2)cn1 [Example 168]
241,2.2,"CCn1cc(Nc2nc(N[C@H]3CN(C(=O)/C(C#N)=C/C4CC4)CC[C@H]3C)c3c(Cl)n[nH]c3n2)cn1 [Example 169, (E)-2-((3R,4R)-3-((3-chloro-6-((1-ethyl-1H-pyrazol-4-yl)amino)-1H-pyrazolo[3,4-d]pyrimidin-4-yl)amino)-4-methylpiperidine-1-carbonyl)-3-cyclopropylacrylonitrile]"
14.9,1.4,"CCn1cc(Nc2nc(N[C@@H]3CCCN(C(=O)/C(C#N)=C/C4CC4)C3)c3cn[nH]c3n2)cn1 [Example 175, (R,E)-3-cyclopropyl-2-(3-((6-((1-ethyl-1H-pyrazol-4-yl)amino)-1H-pyrazolo[3,4-d]pyrimidin-4-yl)amino)piperidine-1-carbonyl)acrylonitrile]"
42.1,3,"CCn1cc(Nc2nc(S[C@@H]3CCCN(C(=O)/C(C#N)=C/C4CC4)C3)c3cn[nH]c3n2)cn1 [Example 176, (R,E)-3-cyclopropyl-2-(3-((6-((1-ethyl-1H-pyrazol-4-yl)amino)-1H-pyrazolo[3,4-d]pyrimidin-4-yl)thio)piperidine-1-carbonyl)acrylonitrile]"
0.4,1.2,"CCn1cc(Nc2nc(N[C@@H]3CCCN(C(=O)/C(C#N)=C/C4CC4)C3)c3c(Cl)c[nH]c3n2)cn1 [Example 177, (R,E)-2-(3-((5-chloro-2-((1-ethyl-1H-pyrazol-4-yl)amino)-7H-pyrrolo[2,3-d]pyrimidin-4-yl)amino)piperidine-1-carbonyl)-3-cyclopropylacrylonitrile]"
1.1,8.3,CCn1cc(Nc2nc(S[C@@H]3CCCN(C(=O)/C(C#N)=C/C4CC4)C3)c3c(Cl)c[nH]c3n2)cn1 [Example 179]
30.2,2.2,CCn1cc(Nc2nc(S[C@@H]3CCCN(C(=O)/C(C#N)=C/C4CC4)C3)c3c(Cl)n[nH]c3n2)cn1 [Example 181]
2.3,2.1,CCn1cc(Nc2nc(N[C@@H]3CCCN(C(=O)/C(C#N)=C/C4CC4)C3)c3c(F)c[nH]c3n2)cn1 [Example 182]
